# Reference: ChEMBL document CHEMBL4387741, “Optimization of novel reversible Bruton's tyrosine kinase inhibitors identified using Tethering-fragment-based screens” (Bioorg Med Chem, 2019)
# Experiments:
# [1] = biological target: Mast/stem cell growth factor receptor Kit (Homo sapiens) (UniProt P10721); assay: Inhibition of wild-type human partial length KIT (I571 to D952 residues) expressed in bacterial expression system at 1 uM by Kinomescan method relative to control
# [2] = system: Phosphatidylinositol 4,5-bisphosphate 3-kinase catalytic subunit alpha isoform (Homo sapiens), P42336 [E545K]; assay: Inhibition of human partial length PIK3CA E545K mutant (R108 to N1068 residues) expressed in mammalian expression system at 1 uM by Kinomescan method relative to control
# [3] = biological target: Cyclin-dependent kinase 18 (Homo sapiens) (UniProt Q07002); assay: Inhibition of wild-type human full length PCTK3 (M3 to F474 residues) expressed in bacterial expression system at 1 uM by Kinomescan method relative to control
# [4] = Plasma clearance in Sprague-Dawley rat at 1 mg/kg, iv; type: ADME, organism-based
# [5] = biological target: SRSF protein kinase 2 (Homo sapiens) (UniProt P78362); assay: Inhibition of wild-type human full length SRPK2 (M1 to S686 residues) expressed in bacterial expression system at 1 uM by Kinomescan method relative to control
# [6] = biological target: Serine/threonine-protein kinase 32C (Homo sapiens) (UniProt Q86UX6); assay: Inhibition of wild-type human partial length YANK3 (M68 to G486 residues) expressed in bacterial expression system at 1 uM by Kinomescan method relative to control
# [7] = biological target: Ephrin type-A receptor 5 (Homo sapiens) (UniProt P54756); assay: Inhibition of wild-type human partial length EPHA5 (T627 to V930 residues) expressed in bacterial expression system at 1 uM by Kinomescan method relative to control
# [8] = biological target: Serine/threonine-protein kinase PLK4 (Homo sapiens) (UniProt O00444); assay: Inhibition of wild-type human partial length PLK4 (M1 to S273 residues) expressed in mammalian expression system at 1 uM by Kinomescan method relative to control
# [9] = biological target: Casein kinase II subunit alpha' (Homo sapiens) (UniProt P19784); assay: Inhibition of wild-type human full length CSNK2A2 (M1 to R350 residues) expressed in mammalian expression system at 1 uM by Kinomescan method relative to control
# [10] = system: Tyrosine-protein kinase ABL1 (Homo sapiens), P00519 [T315I]; assay: Inhibition of human phosphorylated ABL1 T315I mutant (S229 to K512 residues) expressed in mammalian expression system at 1 uM by Kinomescan method relative to control
# [11] = system: Tyrosine-protein kinase ABL1 (Homo sapiens), P00519 [H396P]; assay: Inhibition of human non-phosphorylated ABL1 H396P mutant (S229 to K512 residues) expressed in mammalian expression system at 1 uM by Kinomescan method relative to control
# [12] = biological target: Rhodopsin kinase GRK1 (Homo sapiens) (UniProt Q15835); assay: Inhibition of wild-type human full length GRK1 (M1 to S563 residues) expressed in mammalian expression system at 10 uM by Kinomescan method relative to control
# [13] = biological target: Casein kinase I isoform alpha-like (Homo sapiens) (UniProt Q8N752); assay: Inhibition of wild-type human full length CSNK1A1L (M1 to N337 residues) expressed in bacterial expression system at 10 uM by Kinomescan method relative to control
# [14] = biological target: Myosin light chain kinase (Homo sapiens) (UniProt Q32MK0); assay: Inhibition of wild-type human partial length MLCK (D488 to K800 residues) expressed in bacterial expression system at 10 uM by Kinomescan method relative to control
# [15] = biological target: Calcium/calmodulin-dependent protein kinase type IV (Homo sapiens) (UniProt Q16566); assay: Inhibition of wild-type human partial length CAMK4 (A22 to A322 residues) expressed in bacterial expression system at 10 uM by Kinomescan method relative to control
# [16] = biological target: Serine/threonine-protein kinase D2 (Homo sapiens) (UniProt Q9BZL6); assay: Inhibition of wild-type human partial length PRKD2 (A519 to E838 residues) expressed in bacterial expression system at 10 uM by Kinomescan method relative to control
# [17] = biological target: 1-phosphatidylinositol 3-phosphate 5-kinase (Homo sapiens) (UniProt Q9Y2I7); assay: Inhibition of wild-type human partial length PIKFYVE (F1512 to C2098 residues) expressed in mammalian expression system at 10 uM by Kinomescan method relative to control
# [18] = biological target: MAP kinase-interacting serine/threonine-protein kinase 1 (Homo sapiens) (UniProt Q9BUB5); assay: Inhibition of wild-type human full length MKNK1 (M1 to L424 residues) expressed in mammalian expression system at 10 uM by Kinomescan method relative to control
# [19] = biological target: Mitogen-activated protein kinase kinase kinase 5 (Homo sapiens) (UniProt Q99683); assay: Inhibition of wild-type human partial length ASK1 (E648 to S964 residues) expressed in bacterial expression system at 10 uM by Kinomescan method relative to control
# [20] = biological target: Interleukin-1 receptor-associated kinase 4 (Homo sapiens) (UniProt Q9NWZ3); assay: Inhibition of wild-type human partial length IRAK4 (M1 to S460 residues) expressed in mammalian expression system at 10 uM by Kinomescan method relative to control
# [21] = biological target: Phosphorylase b kinase gamma catalytic chain, liver/testis isoform (Homo sapiens) (UniProt P15735); assay: Inhibition of wild-type human partial length PHKG2 (M1 to W300 residues) expressed in bacterial expression system at 10 uM by Kinomescan method relative to control
# [22] = biological target: Ribosomal protein S6 kinase alpha-4 (Homo sapiens) (UniProt O75676); assay: Inhibition of wild-type human partial length N-terminal RPS6KA4 kinase domain 1 expressed in bacterial expression system at 10 uM by Kinomescan method relative to control
# [23] = biological target: Tyrosine-protein kinase FRK (Homo sapiens) (UniProt P42685); assay: Inhibition of wild-type human partial length FRK (A215 to F503 residues) expressed in bacterial expression system at 10 uM by Kinomescan method relative to control
# [24] = system: Receptor-type tyrosine-protein kinase FLT3 (Homo sapiens), P36888 [UNDEFINED MUTATION]; assay: Inhibition of human partial length FLT3 ITD/F691L double mutant expressed in bacterial expression system at 10 uM by Kinomescan method relative to control
# [25] = biological target: SRSF protein kinase 1 (Homo sapiens) (UniProt Q96SB4); assay: Inhibition of wild-type human full length SRPK1 (M1 to S655 residues) expressed in bacterial expression system at 10 uM by Kinomescan method relative to control
# [26] = biological target: Tyrosine-protein kinase TXK (Homo sapiens) (UniProt P42681); assay: Inhibition of wild-type human partial length TXK (L238 to W527 residues) expressed in bacterial expression system at 10 uM by Kinomescan method relative to control
# [27] = biological target: Serine/threonine-protein kinase pim-2 (Homo sapiens) (UniProt Q9P1W9); assay: Inhibition of wild-type human partial length PIM2 (M1 to E291 residues) expressed in bacterial expression system at 10 uM by Kinomescan method relative to control
smiles,measurement,setting,value
O=C(Nc1cccc([C@@H]2CN(c3ncnc4[nH]ccc34)CCN2CCO)c1)Nc1c(F)cccc1N1CCCC1,inhibition,[1],73%
same,inhibition,[2],56%
same,inhibition,[3],97%
same,clearance,[4],6.2 mL/min/kg
same,inhibition,[5],88%
same,inhibition,[6],100%
same,inhibition,[7],92%
same,inhibition,[8],6.3%
same,inhibition,[9],81%
same,inhibition,[10],93%
same,inhibition,[11],96%
O=C(Nc1cccc([C@H]2CCCN(c3ncnc4[nH]ccc34)C2)c1)Nc1ccccc1N1CCCC1,inhibition,[12],63%
same,inhibition,[13],100%
same,inhibition,[14],100%
same,inhibition,[15],100%
same,inhibition,[16],85%
same,inhibition,[17],77%
same,inhibition,[18],55%
same,inhibition,[19],100%
same,inhibition,[20],85%
same,inhibition,[21],83%
same,inhibition,[22],77%
same,inhibition,[23],96%
same,inhibition,[24],3.6%
same,inhibition,[25],0.45%
same,inhibition,[26],94%
same,inhibition,[27],100%
